Laboratory results from patent US20140093558A1, “STABLE CRYSTAL MODIFICATIONS OF DOTAP CHLORIDE” (MERCK PATENT GMBH, priority 2011, published 2014).
Like-named read-outs stand apart in the source and are kept apart here.

How the values were obtained:
[1] = storage under protective gas at −20° C.; cited from earlier work
[2] = amorphous form, normal atmospheric humidity levels; cited from earlier work
[3] = Storage stability of crystalline DOTAP chloride, remaining content by HPLC; format: physicochemical; settings: for stability values compared with crystalline (2R,S)-DOTAP chloride: storage as in Tables 1 and 1a; for remaining content of (2R,S)-DOTAP chloride (HPLC) / remaining content/purity of (2R,S)-DOTAP chloride (HPLC): exclusion of air
Description: In order to determine the stability of crystalline (2R,S)-DOTAP chloride, the substance is stored at 25° C. and 60% relative humidity (table 1) or at 40° C. and 75% relative humidity (table 1a) with exclusion of air. The remaining content of (2R,S)-DOTAP chloride is measured at periodic intervals and quoted in comparison to the initial value.
The purity and content of DOTAP chloride are determined by means of HPLC using the following method:
HPLC equipment: Agilent 1200 HPLC • column: ODS-3: 150×3 mm, 3 μm. GI Sciences: lnertsil • eluent A: 10 mM pentanesulfonic acid sodium salt in 0.085%ic aqueous H3PO4 • eluent B: 3.85 mM pentanesulfonic acid sodium salt in 94% acetonitrile containing 0.085%ic aqueous H3PO4
• runtime: 25 min • flow: 1.5 ml/min • pressure: ca. 220 bar • column temperature: 50° C. • injection volume: 10 μl
The stability determination can be repeated at any desired time, the values indicated in Tables 1 and 1a are reproducible.

[4] = Hygroscopicity / handling properties; format: physicochemical; settings: crystalline forms
[5] = Solubility in acetonitrile; format: physicochemical; settings: room temperature
[6] = some in-vitro studies, compared with DOTAP chloride; cited from earlier work
[7] = 25° C., 60% relative humidity, 0 months
[8] = 25° C., 60% relative humidity, 3 months
[9] = 25° C., 60% relative humidity, 6 months
[10] = 25° C., 60% relative humidity, 9 months
[11] = 25° C., 60% relative humidity, 12 months
[12] = 25° C., 60% relative humidity, 24 months
[13] = 25° C., 60% relative humidity, 36 months
[14] = 40° C., 75% relative humidity, 0 months
[15] = 40° C., 75% relative humidity, 3 months
[16] = 40° C., 75% relative humidity, 6 months
[17] = 40° C., 75% relative humidity, 9 months
[18] = 40° C., 75% relative humidity, 12 months

Compound: CCCCCCCC/C=C\CCCCCCCC(=O)OCC(C[N+](C)(C)C)OC(=O)CCCCCCC/C=C\CCCCCCCC.[Cl-] (stereo not shown) [amorphous DOTAP chloride, 1,2-dioleoyloxy-3-trimethylammonium propane chloride]
- shelf life guaranteed by the manufacturer [1]: about 6 months
- hygroscopicity [2]: extremely hygroscopic

Compound: (S)-1,2-dioleoyl-3-propyltrimethylammonium chloride [Crystalline (2S)-DOTAP chloride]
- stability values compared with crystalline (2R,S)-DOTAP chloride [3]: Crystalline (2R)- and (2S)-DOTAP chloride show comparable stability values.
- hygroscopicity [4]: remarkably reduced hygroscopicity

Compound: (R)-1,2-dioleoyl-3-propyltrimethylammonium chloride [Crystalline (2R)-DOTAP chloride]
- stability values compared with crystalline (2R,S)-DOTAP chloride [3]: Crystalline (2R)- and (2S)-DOTAP chloride show comparable stability values.
- hygroscopicity [4]: remarkably reduced hygroscopicity

Compound: CCCCCCCC/C=C\CCCCCCCC(=O)OCC(C[N+](C)(C)C)OC(=O)CCCCCCC/C=C\CCCCCCCC.[Cl-] (racemic) [(2R,S)-DOTAP chloride crystalline, (R,S)-1,2-dioleoyl-3-propyltrimethylammonium chloride]
- remaining content of (2R,S)-DOTAP chloride (HPLC) [3, 7]: 99.5 % by weight
- remaining content/purity of (2R,S)-DOTAP chloride (HPLC) [3, 7]: 99.7 Area-%
- remaining content of (2R,S)-DOTAP chloride (HPLC) [3, 8]: 99.7 % by weight
- remaining content/purity of (2R,S)-DOTAP chloride (HPLC) [3, 8]: 99.6 Area-%
- remaining content of (2R,S)-DOTAP chloride (HPLC) [3, 9]: 99.4 % by weight
- remaining content/purity of (2R,S)-DOTAP chloride (HPLC) [3, 9]: 99.5 Area-%
- remaining content of (2R,S)-DOTAP chloride (HPLC) [3, 10]: 99.2 % by weight
- remaining content/purity of (2R,S)-DOTAP chloride (HPLC) [3, 10]: 99.2 Area-%
- remaining content of (2R,S)-DOTAP chloride (HPLC) [3, 11]: 99.5 % by weight
- remaining content/purity of (2R,S)-DOTAP chloride (HPLC) [3, 11]: 99.5 Area-%
- remaining content of (2R,S)-DOTAP chloride (HPLC) [3, 12]: 99.5 % by weight
- remaining content/purity of (2R,S)-DOTAP chloride (HPLC) [3, 12]: 99.7 Area-%
- remaining content of (2R,S)-DOTAP chloride (HPLC) [3, 13]: 99.7 % by weight
- remaining content/purity of (2R,S)-DOTAP chloride (HPLC) [3, 13]: 99.3 Area-%
- degradation on storage ([3]; 25 ± 2° C., after 36 months): The above stability data confirms that crystalline DOTAP chloride is a stable substance. Even after 36-months no significant degradation was observed for the samples stored at 25 ± 2 °C
- remaining content of (2R,S)-DOTAP chloride (HPLC) [3, 14]: 99.5 % by weight
- remaining content/purity of (2R,S)-DOTAP chloride (HPLC) [3, 14]: 99.7 Area-%
- remaining content of (2R,S)-DOTAP chloride (HPLC) [3, 15]: 99.6 % by weight
- remaining content/purity of (2R,S)-DOTAP chloride (HPLC) [3, 15]: 99.6 Area-%
- remaining content of (2R,S)-DOTAP chloride (HPLC) [3, 16]: 99.6 % by weight
- remaining content/purity of (2R,S)-DOTAP chloride (HPLC) [3, 16]: 99.4 Area-%
- remaining content of (2R,S)-DOTAP chloride (HPLC) [3, 17]: 98.9 % by weight
- remaining content/purity of (2R,S)-DOTAP chloride (HPLC) [3, 17]: 99.3 Area-%
- remaining content of (2R,S)-DOTAP chloride (HPLC) [3, 18]: 99.7 % by weight
- remaining content/purity of (2R,S)-DOTAP chloride (HPLC) [3, 18]: 99.4 Area-%
- degradation on storage ([3]; accelerated conditions, 40 ± 2° C., after 12 months): The above stability data confirms that crystalline DOTAP Chloride is a stable substance. Even at accelerated conditions after 12-months no significant degradation was observed for the samples stored at 40 ± 2 °C
- stability determined by HPLC in relation to the starting value ([3]; stored at 25° C. for 36 months): higher than 99 % by weight and area-%
- stability determined by HPLC in relation to the starting value ([3]; stored at 40° C. for 12 months): higher than 99 % by weight and area-%
- solubility in acetonitrile [5]: virtually insoluble
- hygroscopicity [4]: remarkably reduced hygroscopicity

Compound: CCCCCCCC/C=C\CCCCCCCC(=O)OCC(C[N+](C)(C)C)OC(=O)CCCCCCC/C=C\CCCCCCCC.COS(=O)(=O)[O-] (stereo not shown) [DOTAP methylsulfate]
- transfection rate [6]: better transfection rates than DOTAP chloride
